We go through 22 compounds from patent US20240254118A1, “PRMT5 INHIBITORS AND USES THEREOF” (Gilead Sciences, Inc., priority 2022, published 2024).

pEC50: −log10 of the molar value.

By CC50 is commonly meant the concentration at which the toxic effect on the cells reaches its halfway point. A low value points to greater toxicity to the cells. As a reminder, the pEC50 is −log10 of the EC50, conventionally taken in molar units.

For experiment [1], the system named is HCT116 MTAP-deleted cells. Put plainly: Cell viability assay (CellTiter-Glo, 7 days), HCT116 MTAP-deleted. The settings on record: Homo sapiens, HCT-116, 168 h. A general note: ATP-based viability assays read luminescence as a measure of living cells.
The test system of experiment [2] is SDMA signal (PRMT5 inhibition) in HCT116 MTAP-deleted cells. The experiment is described as follows: Symmetric di-methyl arginine image-based high content screen assay (SDMA assay), HCT116 MTAP-deleted. Particulars: SDMA assay; for pEC50: Homo sapiens, HCT-116, 72 h, 3 days of treatment, cell line not given, taken as HCT116 MTAP-deleted, read-out: EC50 (SDMA assay). Type of experiment: cell-based. The gist of the method:
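HCT116 MTAP-deleted cells treated with compound until Day 3, then formalin-fixed, permeabilized and immunostained for SDMA, with DAPI nuclear counterstain. Imaged by high-content microscopy; SDMA read-out is mean Alexa 488 intensity per DAPI-defined cell, reflecting PRMT5 inhibition.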

Setting [3] is: taken as HCT116 WT versus MTAP-deleted.
Setting [4] is: taken as HCT116 WT vs MTAP-deleted.

`COCC(=O)N(C)N(Cc1ccc(C(F)(F)F)cn1)C(=O)c1ccc2nc(N)c3cnn(C)c3c2c1` [Example 385, 4-amino-N′-(2-methoxyacetyl)-N′,1-dimethyl-N-[[5-(trifluoromethyl)-2-pyridyl]methyl]pyrazolo[4,3-c]quinoline-8-carbohydrazide]: in experiment [1], the CC50 is below 100 nM. Also, the pEC50 in experiment [2] was 8.30 to 9.00. Besides, the “EC50 selectivity (SDMA assay)” value in experiment [2] (setting [3]) turned out to be 52.
Consider `Cn1ncc2c(N)nc3cc(F)c(C(=O)N(Cc4ccc(C(F)(F)F)cn4)n4ccc5cccnc54)cc3c21` [Example 296, 4-amino-7-fluoro-1-methyl-N-(1H-pyrrolo[2,3-b]pyridin-1-yl)-N-((5-(trifluoromethyl)pyridin-2-yl)methyl)-1H-pyrazolo[4,3-c]quinoline-8-carboxamide], for which the CC50 in experiment [1] was below 100 nM. For the same compound, in experiment [2], the pEC50 is above 9.00. Also, in experiment [2] (setting [3]), the “EC50 selectivity (SDMA assay)” value is reported as 27.
In experiment [1], `CN(C)N(Cc1ccc(C(F)(F)F)cn1)C(=O)c1ccc2nc(N)c3cscc3c2c1` [Example 73, 4-amino-N′,N′-dimethyl-N-((5-(trifluoromethyl)pyridin-2-yl)methyl)thieno[3,4-c]quinoline-8-carbohydrazide] yielded a half-maximal cytotoxic concentration (CC50) of 100 to 1000 nM. Besides, the pEC50 in experiment [2] was below 8.30. In addition, the “EC50 selectivity (SDMA assay)” value in experiment [2] (setting [3]) was 39.
Compound `CC(=O)N(C)N(Cc1ccc(Cl)cc1C#N)C(=O)c1ccc2nc(N)c3cnn(C)c3c2c1` [Example 457, N′-acetyl-4-amino-N-(4-chloro-2-cyanobenzyl)-N′,1-dimethyl-1H-pyrazolo[4,3-c]quinoline-8-carbohydrazide] came in with a CC50 in experiment [1] below 100 nM. The pEC50 in experiment [2] is above 9.00. For the same compound, the “EC50 selectivity (SDMA assay)” value in experiment [2] (setting [4]) turned out to be 90.
As to `CC(=O)N(C)N(Cc1c(F)cc(C(F)(F)F)cc1F)C(=O)c1ccc2nc(N)c3cnn(C)c3c2c1` [Example 415, N′-acetyl-4-amino-N-(2,6-difluoro-4-(trifluoromethyl)benzyl)-N′,1-dimethyl-1H-pyrazolo[4,3-c]quinoline-8-carbohydrazide], in experiment [1], the CC50 was below 100 nM. Besides, the pEC50 in experiment [2] is above 9.00. In experiment [2] (setting [4]), the “EC50 selectivity (SDMA assay)” value came out at 26.
For `CC(=O)N(C)N(Cc1cc(F)c(F)cc1F)C(=O)c1ccc2nc(N)c3cnn(C)c3c2c1` [Example 49, N′-acetyl-4-amino-N′,1-dimethyl-N-[(2,4,5-trifluorophenyl)methyl]pyrazolo[4,3-c]quinoline-8-carbohydrazide], in experiment [1], the half-maximal cytotoxic concentration (CC50) is below 100 nM. Also, the pEC50 in experiment [2] is above 9.00. The “EC50 selectivity (SDMA assay)” value in experiment [2] (setting [3]) turned out to be 163.
As to `Cn1ncc2c(N)nc3ccc(C(=O)N(Cc4ccc(C(F)(F)F)cc4F)N4CCOCC4)cc3c21` [Example 397, 4-amino-N-[[2-fluoro-4-(trifluoromethyl)phenyl]methyl]-1-methyl-N-morpholino-pyrazolo[4,3-c]quinoline-8-carboxamide], the half-maximal cytotoxic concentration (CC50) in experiment [1] is below 100 nM. The pEC50 in experiment [2] was 8.30 to 9.00. The “EC50 selectivity (SDMA assay)” value in experiment [2] (setting [4]) is 78.
`CC(c1ccc(C(F)(F)F)cn1)N(C(=O)c1ccc2nc(N)c3cscc3c2c1)N(C)C` (stereo not drawn) [Example 74, 4-amino-N′,N′-dimethyl-N-(1-(5-(trifluoromethyl)pyridin-2-yl)ethyl)thieno[3,4-c]quinoline-8-carbohydrazide] gave a 50% cytotoxic concentration (CC50) in experiment [1] of 100 to 1000 nM. Further, in experiment [2], the pEC50 was below 8.30. For the same compound, the “EC50 selectivity (SDMA assay)” value in experiment [2] (setting [3]) is recorded as above 71.
As for `Cn1ncc2c(N)nc3ccc(C(=O)N(Cc4ccc5nsnc5c4)N4CCCC4=O)cc3c21` [Example 95, 4-amino-N-(2,1,3-benzothiadiazol-5-ylmethyl)-1-methyl-N-(2-oxopyrrolidin-1-yl)pyrazolo[4,3-c]quinoline-8-carboxamide], the CC50 in experiment [1] is below 100 nM. Moreover, in experiment [2], the pEC50 is above 9.00. In addition, the “EC50 selectivity (SDMA assay)” value in experiment [2] (setting [3]) was 205.
In experiment [1], `CC(=O)N(C)N(Cc1ccc2scnc2c1)C(=O)c1ccc2nc(N)c3cnn(C)c3c2c1` [Example 327, N′-acetyl-4-amino-N-(benzo[d]thiazol-5-ylmethyl)-N′,1-dimethyl-1H-pyrazolo[4,3-c]quinoline-8-carbohydrazide] returned a CC50 below 100 nM. Also, the pEC50 in experiment [2] is 8.30 to 9.00. The “EC50 selectivity (SDMA assay)” value in experiment [2] (setting [3]) is 549.
The corresponding values for `CC(=O)N(C)N(Cc1ccc(C#CC(C)(C)O)cc1F)C(=O)c1ccc2nc(N)c3cnn(C)c3c2c1` [Example 389, N′-acetyl-4-amino-N-[[2-fluoro-4-(3-hydroxy-3-methyl-but-1-ynyl)phenyl]methyl]-N′,1-dimethyl-pyrazolo[4,3-c]quinoline-8-carbohydrazide] are below 100 nM, 8.30 to 9.00 and 31.
The corresponding values for `CN(C(=O)C12CC(C1)C2)N(Cc1ccc2ncsc2c1)C(=O)c1ccc2nc(N)c3cnn(C)c3c2c1` [Example 338, 4-amino-N-(benzo[d]thiazol-6-ylmethyl)-N′-(bicyclo[1.1.1]pentane-1-carbonyl)-N′,1-dimethyl-1H-pyrazolo[4,3-c]quinoline-8-carbohydrazideide] are below 100 nM, above 9.00 and 373.
As for `Cn1ncc2c(N)nc3ccc(C(=O)N(Cc4ccc(C(F)(F)F)cn4)N4C(=O)[C@H]5CC[C@@H]4C5)cc3c21` [Example 11, 4-amino-1-methyl-N-[(1R,4S)-3-oxo-2-azabicyclo[2.2.1]heptan-2-yl]-N-[[5-(trifluoromethyl)-2-pyridyl]methyl]pyrazolo[4,3-c]quinoline-8-carboxamide], in experiment [1], the half-maximal cytotoxic concentration (CC50) was below 100 nM. Moreover, the pEC50 in experiment [2] is above 9.00. The “EC50 selectivity (SDMA assay)” value in experiment [2] (setting [3]) is recorded as 245.
Regarding `Cn1ncc2c(N)nc3ccc(C(=O)N(Cc4ccc(C(F)(F)F)cn4)N4CCC(C)(C)C4=O)cc3c21` [Example 43, 4-amino-N-(3,3-dimethyl-2-oxo-pyrrolidin-1-yl)-1-methyl-N-[[5-(trifluoromethyl)-2-pyridyl]methyl]pyrazolo[4,3-c]quinoline-8-carboxamide], the CC50 in experiment [1] was below 100 nM. In addition, in experiment [2], the pEC50 is 8.30 to 9.00. The “EC50 selectivity (SDMA assay)” value in experiment [2] (setting [3]) is reported as 226.
For the compound `CNC(=O)c1ccc(-c2ccc(CN(C(=O)c3ccc4nc(N)c5cnn(C)c5c4c3)N3CCCCC3=O)nc2)cn1` [Example 160, 4-amino-1-methyl-N-((6′-(methylcarbamoyl)-[3,3′-bipyridin]-6-yl)methyl)-N-(2-oxopiperidin-1-yl)-1H-pyrazolo[4,3-c]quinoline-8-carboxamide], the CC50 in experiment [1] was below 100 nM. Also, the pEC50 in experiment [2] is 8.30 to 9.00. The “EC50 selectivity (SDMA assay)” value in experiment [2] (setting [3]) was determined as 10.
Regarding `CC(=O)N(C)N(Cc1cc2c(C(F)(F)F)cccc2s1)C(=O)c1ccc2nc(N)c3cnn(C)c3c2c1` [Example 418, N′-acetyl-4-amino-N′,1-dimethyl-N-((4-(trifluoromethyl)benzo[b]thiophen-2-yl)methyl)-1H-pyrazolo[4,3-c]quinoline-8-carbohydrazide], the CC50 in experiment [1] is below 100 nM. Further, in experiment [2], the negative logarithm of the EC50 (pEC50) is 8.30 to 9.00. The “EC50 selectivity (SDMA assay)” value in experiment [2] (setting [4]) is reported as 114.
With `CC(=O)N(C)N(Cc1ccc(-c2ccn(C(F)(F)F)n2)cc1F)C(=O)c1ccc2nc(N)c3cnn(C)c3c2c1` [Example 249, N′-acetyl-4-amino-N-(2-fluoro-4-(1-(trifluoromethyl)-1H-pyrazol-3-yl)benzyl)-N′,1-dimethyl-1H-pyrazolo[4,3-c]quinoline-8-carbohydrazide], the CC50 in experiment [1] was below 100 nM. The pEC50 in experiment [2] is above 9.00. In experiment [2] (setting [3]), the “EC50 selectivity (SDMA assay)” value is 193.
In the case of `CC(=O)N(C)N(Cc1ccc(-c2cnn(C3CC3)c2)cc1F)C(=O)c1ccc2nc(N)c3cnn(C)c3c2c1` [Example 236, N′-acetyl-4-amino-N-(4-(1-cyclopropyl-1H-pyrazol-4-yl)-2-fluorobenzyl)-N′,1-dimethyl-1H-pyrazolo[4,3-c]quinoline-8-carbohydrazide], the CC50 in experiment [1] was below 100 nM. Moreover, the pEC50 in experiment [2] is above 9.00. Moreover, the “EC50 selectivity (SDMA assay)” value in experiment [2] (setting [3]) is reported as 203.
`Cn1ncc2c(N)nc3ccc(C(=O)N(Cc4nc5ccccc5s4)N4CCC(F)(F)C4=O)cc3c21` [Example 169, 4-amino-N-(1,3-benzothiazol-2-ylmethyl)-N-(3,3-difluoro-2-oxo-pyrrolidin-1-yl)-1-methyl-pyrazolo[4,3-c]quinoline-8-carboxamide] came in with a CC50 in experiment [1] below 100 nM. Also, the pEC50 in experiment [2] was 8.30 to 9.00. In experiment [2] (setting [3]), the “EC50 selectivity (SDMA assay)” value is 14.
`Cn1ncc2c(N)nc3ccc(C(=O)N(Cc4ccc(C(F)(F)F)cn4)N4CCC5(CC5)OC4=O)cc3c21` [Example 336, 4-amino-1-methyl-N-(5-oxo-4-oxa-6-azaspiro[2.5]octan-6-yl)-N-((5-(trifluoromethyl)pyridin-2-yl)methyl)-1H-pyrazolo[4,3-c]quinoline-8-carboxamide] showed a CC50 in experiment [1] below 100 nM. Further, the pEC50 in experiment [2] was 8.30 to 9.00. For the same compound, the “EC50 selectivity (SDMA assay)” value in experiment [2] (setting [3]) is 94.
The corresponding values for `COc1cc(C(F)(F)F)ccc1CN(C(=O)c1ccc2nc(N)c3cnn(C)c3c2c1)N(C)C(C)=O` [Example 19, N′-acetyl-4-amino-N-[[2-methoxy-4-(trifluoromethyl)phenyl]methyl]-N′,1-dimethyl-pyrazolo[4,3-c]quinoline-8-carbohydrazide] are below 100 nM, above 9.00 and 93.
As for `CC(=O)N(C)N(Cc1ccc2c(cnn2C)c1)C(=O)c1ccc2nc(N)c3cnn(C)c3c2c1` [Example 164, N′-acetyl-4-amino-N′,1-dimethyl-N-((1-methyl-1H-indazol-5-yl)methyl)-1H-pyrazolo[4,3-c]quinoline-8-carbohydrazide], in experiment [1], the CC50 is below 100 nM. The negative-log EC50 (pEC50) in experiment [2] was 8.30 to 9.00. Besides, the “EC50 selectivity (SDMA assay)” value in experiment [2] (setting [3]) came to 163.
